Laboratory results reported in patent publication US12324841B2, “Methods of treating cancer with a combination of an anti-PD-1 antibody and an anti-tissue factor antibody-drug conjugate” (GENMAB A/S, priority 2018, dated 2025).
“Also recorded” adds a separate entry of the source.

How the values were obtained:
[1] = tested on: murine tumor cells that stably express human TF; assay: Syngeneic tumor model: immunization with drug-killed human TF positive murine tumor cells, then tumor challenge; format: in vivo, Balb/c mice; details: mice immunized with tumor cells killed by 1-5 μg per ml tisotumab vedotin or 100 nM MMAE
Experimental: Mouse tumor cells are transfected with plasmid constructs encoding human tissue factor (TF) and sgRNA-guided Cas9 nuclease (sgRNA/Cas9) to generate a murine cell line that expresses the human TF. Fluorescence activated cell sorting (FACS) yields a clonal population of murine tumor cells that stably express human TF, these cells are then treated with 1 μg to 5 μg per ml of tisotumab vedotin or 100 nM of MMAE for 4 days. In order to prepare dying cells for immunization, treated murine tumor cells are overlaid atop Histopaque, and centrifuged at 2000 g for 30 minutes. Dead and dying cells are pelleted underneath the Histopaque layer, and viability assessed by trypan blue exclusion. A sample with approximately <20% live cells as measured by trypan blue exclusion is obtained. Flash-frozen tumor cells are prepared by submerging the cells in liquid nitrogen for 10 seconds, followed by immersion in 37° C. water until completely thawed. The liquid nitrogen freeze-thaw process is repeated 5 times. Dead and dying human TF positive tumor cells are resuspended in phosphate buffered saline (PBS) and 2×10^6 cells are injected into the peritoneum of immune-competent Balb/c mice. Seven days later, mice receive a second immunization with dead and dying cells prepared in the same manner.
Fourteen days after initial immunization with the dead and dying human TF positive tumor cells, mice are subcutaneously implanted with 5×10^6 wild-type tumor cells and monitored for tumor growth. […] As these effects occur in the absence of any administered therapeutic agent, the administration of cells killed by tisotumab vedotin or MMAE is sufficient to generate long-lasting protective immune memory against subsequent tumor cell challenge. Protective immune memory is amplified by treating these mice with tisotumab vedotin in combination with an antibody that binds to murine PD-1.

[2] = tested on: relapsed, recurrent, and/or metastatic cervical cancer; assay: Phase I/II trial of tisotumab vedotin (NCT02001623); format: in vivo, human
Source text: Further investigation of tisotumab vedotin as a monotherapy and in combination with immunotherapy (e.g., an anti-PD-1 antibody) in a larger cohort of patients with cervical cancer is needed.
Three adverse events of special interest were identified during treatment with tisotumab vedotin alone in the Phase IIa trial discussed above: 1) ocular adverse events; 2) adverse events of peripheral neuropathy; and 3) adverse events of bleeding. […] In the present trial, in order to prevent ocular AEs, all subjects in both treatment groups (i.e., tisotumab vedotin alone or in combination with pembrolizumab) must adhere to the following ocular pre-medication guidelines: 1) use of preservative-free lubricating eye drops during the whole treatment phase of the trial (i.e., from first dose of tisotumab vedotin until the safety follow-up visit). Lubricating eye drops should be administered according to the product prescribing information; 2) it is recommended not to wear contact lenses while treated with tisotumab vedotin from the first dose until a safety follow-up visit; 3) use of refrigerator-based eye cooling pads during infusion, e.g. THERA PEARL Eye Mask or similar, to be applied immediately before infusion in accordance with the instructions provided with the eye cooling pads; 4) administration of local ocular vasoconstrictor before infusion (brimonidine tartrate 0.2% eye drops or similar, 3 drops in each eye immediately prior to start of infusion; otherwise to be used in accordance with the product prescribing information). […] Steroid eye drops should be administered as 1 drop in each eye, 3 times daily, for 3 days, or used in accordance with the product prescribing information.
For AEs of peripheral neuropathy (including neuropathy peripheral; peripheral sensory neuropathy; peripheral motor neuropathy; polyneuropathy): Peripheral neuropathy is a well-known adverse reaction to treatment with platinum and taxane based chemotherapies as well as MMAE-based ADCs and is reported in approximately 35% of subjects who received treatment with tisotumab vedotin. […] A mitigation plan, including dose reduction (See Table 4) and dose delays, is in place to control the rates and severity of peripheral neuropathy observed in subjects treated with tisotumab vedotin. For Grade 2 and 3, or initial or worsening of pre-existing condition, hold tisotumab vedotin until event has improved to ≤grade 1 then reduce next dose according to dose reduction shown in Table 4. No action is required to be taken with pembrolizumab. For ≥Grade 4, permanently discontinue tisotumab vedotin. Contact sponsor to discuss continuation of pembrolizumab alone.
For AEs of bleeding: Bleeding events are considered of special interest due to the mode of action of tisotumab vedotin. […] Dose modification and toxicity management guidelines are in place (Table 7).

[3] = tested on: Tissue Factor positive cell lines; assay: Cell death and release of ATP and HMGB1 from Tissue Factor positive cell lines; format: cell-based
Source text: Auristatin ADC payloads disrupt the microtubule networks resulting in altered ER localization and function, which ultimately results in ER stress.

[4] = tested on: MDA-MB-231 (breast cell carcinoma); assay: Western blot analysis of ER stress induction in MDA-MB-231 cells; format: cell-based; details: MDA-MB-231, 18 hours (legend: 16 hours)
Experimental: Induction of cell death and release of ICD danger signals occurs concomitant with initiation of an ER stress response. Two Tissue Factor positive cell lines, HPAFII (pancreatic carcinoma) and MDA-MB-231 (breast cell carcinoma) were exposed to tisotumab vedotin ADC, an Isotype-MMAE ADC (H00-MMAE, IgG1 MMAE), or free MMAE for 18 hours and induction of ER stress monitored by western blot analysis. Phosphorylation of inositol-requiring transmembrane kinase/endonuclease 1 (IRE1) was detected after treatment with tisotumab vedotin ADC or MMAE free drug (FIG. 6). […] The ability for auristatins to prime the immune system to recognize tumor antigens opens the door for a myriad of combinatorial therapeutic options.

T cells = assay: T cell activation in CSFE labeled PBMCs fed killed MDA-MB-231 cells, with or without pembrolizumab; format: cell-based, human; details: 48 hours, without pembrolizumab
Experimental: FIG. 8A-8C is a series of graphs in which Tissue Factor positive MDA-MB-231 cells killed with various agents were fed to CSFE labeled human peripheral blood mononuclear cells (PBMCs) in the presence or absence of the PD1 targeting antibody pembrolizumab for 48 hours and T cells activation assessed by A) decreased CSFE fluorescent indicative of T cell proliferation and B) and C) cytokine production.
Induction of the innate immune response following exposure to cancer cells undergoing ICD sets up secondary T cell activation, which can be enhanced by concomitant pembrolizumab treatment.

[5] = subjects who received tisotumab vedotin

What does the source list for “tisotumab vedotin: antibody-drug conjugate comprising an antibody that binds to tissue factor (TF), a protease-cleavable linker, and the microtubule disrupting agent MMAE”?
survival after challenge with wild-type tumor cells [1]: increased survival; tumor growth after challenge with wild-type tumor cells [1]: delayed tumor growth; efficacy ([2]; 2.0 mg/kg tisotumab vedotin): robust efficacy; safety profile ([2]; 2.0 mg/kg tisotumab vedotin): manageable safety profile; bleeding events: epistaxis, frequency ([2]; in vivo): most common reported AE; bleeding events: epistaxis, grade ([2]; in vivo): nearly all of the cases are grade 1; clinically relevant perturbations in aPTT or prothrombin time (PT) ([2]; in vivo): have not been observed; peripheral neuropathy as cause of permanent discontinuation [2, 5]: leading cause of permanently discontinuation; peripheral neuropathy, grade of reported cases [2, 5]: majority of the reported cases are grade 1-2; peripheral neuropathy, share of subjects [2, 5]: approximately 35%; ocular AEs: grade 1-2 conjunctivitis ([2]; tisotumab vedotin alone): frequently reported; cell death [3]: undergo cell death; ATP release/secretion ([3]; FIG. 5A): drove robust A) ATP secretion; also recorded: release the ICD related molecules ATP; activity on multiple Tissue Factor positive cell lines ([3]; FIG. 5B): active on multiple Tissue Factor positive cell lines; HMGB1 release/secretion ([3]; FIG. 5C): drove robust A) ATP secretion and C) HMGB1 release; also recorded: release the ICD related molecules ATP (FIG. 5A) and HMGβ1; ATF4 cleavage (PERK pathway) [4]: upregulation of ATF4 cleavage; phosphorylation of IRE1 [4]: detected; phosphorylation of JNK [4]: increased phosphorylation; T cell proliferation (CSFE dilution) (T cells): drove T cell proliferation; production of IFNγ (T cells): production of T cell specific cytokines such as IL12P70 and IFNγ; production of IL12p70 (T cells): production of T cell specific cytokines such as IL12P70 and IFNγ
